These results are taken from patent US5411943A, “Hepatoma treatment with somatostatin analogs” (Biomeasure, Inc., priority 1992, dated 1995).

Series [1] has as its system M5123 hepatoma. Description: Subcutaneous tumor assay, M5123 hepatoma implanted s.c. in Buffalo strain rats. The conditions noted are these: for Final Tumor Size Day 15 / Percent Test/Control: 500 μg analog/inj.; for Final Tumor Size Day 15: mean ± S.D.; for Percent Test/Control: day 15. The series is classed as in vivo, rat. From the text:
(§1) The M5123 hepatoma cells, obtained from Dr. H. P. Morris at the National Cancer Institute, were induced in the Buffalo strain of rats by ingestion of N-(2-fluorenylphthalamic acid) and established in serial transplantation. Implantation of the M5123 hepatoma cells in an immunodeficient athymic mouse or Buffalo strain rat reproducibly results in a progressively growing, lethal tumor.
(§2) To determine the growth inhibitory effect of bombesin analogs on hepatoma cells, two in vivo assay systems, the subcutaneous tumor assay in the syngeneic Buffalo strain rat and the subrenal capsule assay using the immunodeficient athymic nude mouse were employed.
In the subcutaneous assay, tumor grafts are implanted subcutaneously and treatment can be initiated at any selected time after the implantation.
In this assay, 20 male Buffalo strain rats were implanted s.c., right flank, with a 2 mm^3 mince of the M5123 hepatoma in the a.m. of day zero. The animals were individually identified and then randomized 10 rats in the control and 5 rats per test group. […] Tumor sizes were determined with Vernier calipers twice weekly and size calculated as the average of two diameters (length+width/2) mm.

The subject of series [2] is M5123 hepatoma. Description: Subrenal capsule assay (SRCA), M5123 rat hepatoma xenografts in athymic female mice. The series is classed as in vivo, mouse. The conditions noted are these: s.c., b.i.d., q.d. 1-9; for Change in Tumor Size between day 0 and day 10: mean ± s.e.m.
Text: as §1, §2
SRCA was designed as a rapid in vivo method for testing chemotherapeutic agents against tumor xenografts prepared from solid malignancies. As an antitumor screening procedure, tumors, both human and murine, can be tested as xenografts in athymic female mice. For detailed description of this assay, see Bogden, A. E. et al. A rapid screening method for testing chemotherapeutic agents against human tumor xenografts. In: Proc. Symp. Use of Athymic (Nude) Mice in Cancer Research, p. 231, Edited by Houchens et al., Gustav Fisher, N.Y. (1978).
Further, an in situ determination of tumor xenograft size at time of implantation and again at termination of the assay, permits use of the very simple parameter of change in tumor size for evaluating tumor sensitivity to the analog. Since the initial measurement provides each xenograft with its own baseline for evaluating drug effects, one can measure tumor response to drugs in terms of progression, stabilization, partial remission and complete remission, which are parameters that have clinical relevance.
In this assay, xenografts prepared from the transplantation-established M5123 hepatoma were first implanted in immunodeficient athymic female mice, followed by treatment with BIM-23014, in assays of 10-day duration. Thirty two athymic female mice were implanted under the renal capsule with 1 mm cubed grafts of the M5123 rat hepatoma on day zero. Treatment with the analog was initiated on day one at 500, 250 and 50 μg per injection, s.c., b.i.d., on a q.d. 1-9 schedule. On day 10, the mice were sacrificed, the kidney was removed and the size of the tumor was measured to determine changes in tumor size between day 0 and day 10.
More specifically, the size of the tumor was measured in situ by means of a stereoscope, which was fitted with an ocular micrometer calibrated in ocular units (OMU, 10 OMU=1 mm). For each tumor, two perpendicular diameters were measured and the difference in mean tumor diameter over the 10-day period was calculated.

Series [3] in a line: Body weight change (systemic toxicity) in the subcutaneous assay. The following applies: for Final Body Weight/Initial Body Weight ratio: q.d. 0-15 (control 1.15). It counts as in vivo, rat. As for the experimental part: In this assay, 20 male Buffalo strain rats were implanted s.c., right flank, with a 2 mm^3 mince of the M5123 hepatoma in the a.m. of day zero. The animals were individually identified and then randomized 10 rats in the control and 5 rats per test group. An somatostatin analog used in the invention, H-D-β-Nal-Cys-Tyr-D-Trp-Lys-Val-Cys-Thr-NH2 (code name: BIM-23014), was administered b.i.d. Monday through Friday, and as a single total daily dose on Saturday and Sunday. Tumor sizes were determined with Vernier calipers twice weekly and size calculated as the average of two diameters (length+width/2) mm.
Since neoplasms maintain autonomous growth by autocrine and paracrine growth factors, the importance of attaining therapeutic concentrations of an antigrowth factor such as BIM-23014 at the tumor site is emphasized in this study. […] Control Final Body Weight/Initial Body Weight ratio was 1.15, as compared to 1.06 for group 2 and 1.12 for group 3.

In the case of `CC(C)[C@@H]1NC(=O)[C@H](CCCCN)NC(=O)[C@@H](Cc2c[nH]c3ccccc23)NC(=O)[C@H](Cc2ccc(O)cc2)NC(=O)[C@@H](NC(=O)[C@H](N)Cc2ccc3ccccc3c2)CSSC[C@@H](C(=O)N[C@H](C(N)=O)[C@@H](C)O)NC1=O` [BIM-23014, H-D-β-Nal-Cys-Tyr-D-Trp-Lys-Val-Cys-Thr-NH2], the “Final Tumor Size Day 15” value is given as 10.2 ± 5.6 mm in series [1] (s.c. infusion (perilesional) b.i.d., q.d. 0-15) and 16.8 ± 2.4 mm in series [1] (s.c., b.i.d., q.d. 0-15 (flank opposite from tumor)). The “Percent Test/Control” value in series [1] (s.c. infusion b.i.d., q.d. 0-15) was found to be 62%; in series [1] (s.c., b.i.d., q.d. 0-15), 102%. In series [1] (s.c. on the flank opposite from the tumor, 500 μg/inj.), the “Tumor inhibitory effect (in words)” value is on record as “no tumor inhibitory effects”. Further, the “Growth of the M5123 hepatoma (in words)” value in series [1] (s.c. perilesional infusion, 500 μg/inj., p<0.01) was “significantly inhibited”. In addition, the figures for the “% Test/Control” value in series [2] (50 μg analog/inj.), in series [2] (250 μg analog/inj.) and in series [2] (500 μg analog/inj.) were 93%, 77% and 84%, respectively. In addition, the “Change in Tumor Size between day 0 and day 10” value amounted to 37.00 ± 1.80 omu in series [2] (50 μg analog/inj.), 30.56 ± 3.61 omu in series [2] (250 μg analog/inj.) and 33.38 ± 2.19 omu in series [2] (500 μg analog/inj.). Further, the “Inhibition (antitumor activity)” value was 7% in series [2] (50 μg) and 16% in series [2] (500 μg). Moreover, the “Reduction in the growth of the tumor” value in series [2] (250 μg/injection) is “about 25%”. In series [3] (500 μg/inj., b.i.d., q.d. 0-15), the “Systemic toxic effects from treatment as indicated by body weight loss (in words)” value is recorded as “no evidence of systemic toxic effects”. The “Final Body Weight/Initial Body Weight ratio” value in series [3] (group 2: 500 μg/inj., s.c., b.i.d.) is given as 1.06; in series [3] (group 3: 500 μg/inj., s.c. infusion b.i.d.), 1.12.
